Reference: the NIST ThermoML archive (doi:10.1016/j.jct.2008.05.014)

Assay: xn = mol fraction of the nth substance listed
Conditions: Liquid; for speed of sound: Pulse-echo method

CCCCCCCCCCCC [dodecane] + CCCCCCC
Conditions | mass density [kg/m3] | speed of sound [m/s]
313.11 K, 75990 kPa, x2 = 0.1014 | – | 1575.8
313.11 K, 75990 kPa, x2 = 0.3007 | – | 1560.1
313.11 K, 75990 kPa, x2 = 0.5003 | – | 1544.4
313.11 K, 75990 kPa, x2 = 0.7007 | – | 1524.1
313.11 K, 91180 kPa, x2 = 0.1014 | – | 1630.7
313.11 K, 91180 kPa, x2 = 0.3007 | – | 1616.4
313.11 K, 91180 kPa, x2 = 0.5003 | – | 1601.4
313.11 K, 101320 kPa, x2 = 0.3007 | – | 1651.1
313.11 K, 101320 kPa, x2 = 0.5003 | – | 1637
313.11 K, 101320 kPa, x2 = 0.7007 | – | 1618.5
313.12 K, 101 kPa, x2 = 0.8 | – | 1108.9
313.12 K, 15200 kPa, x2 = 0.5003 | – | 1261.2
313.12 K, 30390 kPa, x2 = 0.8496 | – | 1297.9
313.12 K, 45590 kPa, x2 = 0.3007 | – | 1435.5
313.12 K, 45590 kPa, x2 = 0.8496 | – | 1375.3
313.12 K, 60790 kPa, x2 = 0.3007 | – | 1500.5
313.12 K, 60790 kPa, x2 = 0.8496 | – | 1444.9
313.12 K, 75990 kPa, x2 = 0.8496 | – | 1508.4
313.12 K, 91180 kPa, x2 = 0.8496 | – | 1566.8
313.12 K, 101320 kPa, x2 = 0.8496 | – | 1604
313.13 K, 101 kPa, x2 = 0.2001 | – | 1199.7
313.13 K, 101 kPa, x2 = 0.5002 | – | 1159.9
313.13 K, 15200 kPa, x2 = 0.8496 | – | 1209.3
313.14 K, 101 kPa, x2 = 0.1007 | – | 1210.7
313.15 K, 101 kPa, x2 = 0 | 734.369 | –
313.15 K, 101 kPa, x2 = 0.0991 | 730.129 | –
313.15 K, 101 kPa, x2 = 0.2008 | 725.372 | –
313.15 K, 101 kPa, x2 = 0.2998 | 720.306 | –
313.15 K, 101 kPa, x2 = 0.3996 | 714.763 | –
313.15 K, 101 kPa, x2 = 0.5 | 708.645 | –
313.15 K, 101 kPa, x2 = 0.6 | 701.955 | –
313.15 K, 101 kPa, x2 = 0.7005 | 694.545 | –
313.15 K, 101 kPa, x2 = 0.7995 | 686.378 | –
313.15 K, 101 kPa, x2 = 0.8486 | 682.014 | –
313.15 K, 101 kPa, x2 = 0.8988 | 677.238 | –
313.15 K, 101 kPa, x2 = 0.9498 | 672.083 | –
313.21 K, 15200 kPa, x2 = 0 | – | 1313.4
313.21 K, 30390 kPa, x2 = 0 | – | 1391.1
313.21 K, 45590 kPa, x2 = 0 | – | 1460.8
313.21 K, 60790 kPa, x2 = 0 | – | 1524.1
313.21 K, 75990 kPa, x2 = 0 | – | 1582.5
313.21 K, 91180 kPa, x2 = 0 | – | 1637.3
313.21 K, 101320 kPa, x2 = 0 | – | 1671.3
318.15 K, 101 kPa, x2 = 0 | 730.715 | –
318.15 K, 101 kPa, x2 = 0.0991 | 726.449 | –
318.15 K, 101 kPa, x2 = 0.2008 | 721.654 | –
318.15 K, 101 kPa, x2 = 0.2998 | 716.534 | –
318.15 K, 101 kPa, x2 = 0.3996 | 710.938 | –
318.15 K, 101 kPa, x2 = 0.5 | 704.756 | –
318.15 K, 101 kPa, x2 = 0.6 | 698 | –
318.15 K, 101 kPa, x2 = 0.7005 | 690.511 | –
318.15 K, 101 kPa, x2 = 0.7995 | 682.231 | –
318.15 K, 101 kPa, x2 = 0.8486 | 677.842 | –
318.15 K, 101 kPa, x2 = 0.8988 | 673.004 | –
318.15 K, 101 kPa, x2 = 0.9498 | 667.78 | –
318.17 K, 30390 kPa, x2 = 0.9391 | – | 1264.9
318.17 K, 60790 kPa, x2 = 0.9391 | – | 1416.7
318.17 K, 75990 kPa, x2 = 0.9391 | – | 1481.5
318.17 K, 91180 kPa, x2 = 0.9391 | – | 1540.9
318.17 K, 101320 kPa, x2 = 0.9391 | – | 1578.8
318.18 K, 15200 kPa, x2 = 0.9391 | – | 1172.9
318.18 K, 30390 kPa, x2 = 0.4999 | – | 1327.8
318.18 K, 45590 kPa, x2 = 0.4999 | – | 1402.2
318.18 K, 45590 kPa, x2 = 0.9391 | – | 1345
318.18 K, 60790 kPa, x2 = 0.4999 | – | 1469.5
318.18 K, 75990 kPa, x2 = 0.4999 | – | 1530.5
318.18 K, 75990 kPa, x2 = 0.97 | – | 1479.1
318.18 K, 91180 kPa, x2 = 0.4999 | – | 1587.8
318.18 K, 101320 kPa, x2 = 0.4999 | – | 1623.8
318.19 K, 15200 kPa, x2 = 0.4999 | – | 1243.6
318.19 K, 15200 kPa, x2 = 0.97 | – | 1168.4
318.19 K, 30390 kPa, x2 = 0.97 | – | 1261.1
318.19 K, 45590 kPa, x2 = 0.8496 | – | 1359.9
318.19 K, 45590 kPa, x2 = 0.97 | – | 1341.7
318.19 K, 60790 kPa, x2 = 0.97 | – | 1413.8
318.19 K, 91180 kPa, x2 = 0.97 | – | 1538.7
318.19 K, 101320 kPa, x2 = 0.1014 | – | 1652.2
318.19 K, 101320 kPa, x2 = 0.97 | – | 1576.7
318.2 K, 15200 kPa, x2 = 0.1014 | – | 1286.7
318.2 K, 15200 kPa, x2 = 0.8496 | – | 1191.3
318.2 K, 30390 kPa, x2 = 0.1014 | – | 1366.6
318.2 K, 30390 kPa, x2 = 0.8496 | – | 1281.3
318.2 K, 45590 kPa, x2 = 0.1014 | – | 1437.8
318.2 K, 60790 kPa, x2 = 0.1014 | – | 1502.5
318.2 K, 60790 kPa, x2 = 0.8496 | – | 1430.4
318.2 K, 75990 kPa, x2 = 0.8496 | – | 1494.5
318.2 K, 76190 kPa, x2 = 0.1014 | – | 1562.6
318.2 K, 91180 kPa, x2 = 0.1014 | – | 1617.7
318.2 K, 91180 kPa, x2 = 0.8496 | – | 1553.3
318.2 K, 101320 kPa, x2 = 0.8496 | – | 1590.8
318.28 K, 101320 kPa, x2 = 0.5003 | – | 1623.8
318.29 K, 15200 kPa, x2 = 0 | – | 1296.2
318.29 K, 15200 kPa, x2 = 0.3007 | – | 1265.2
318.29 K, 15200 kPa, x2 = 0.5003 | – | 1243.2
318.29 K, 30390 kPa, x2 = 0 | – | 1375
318.29 K, 30390 kPa, x2 = 0.5003 | – | 1327.5
318.29 K, 45590 kPa, x2 = 0 | – | 1445.5
318.29 K, 45590 kPa, x2 = 0.3007 | – | 1420.2
318.29 K, 45590 kPa, x2 = 0.5003 | – | 1401.9
318.29 K, 60790 kPa, x2 = 0 | – | 1509.7
318.29 K, 60790 kPa, x2 = 0.3007 | – | 1486
318.29 K, 60790 kPa, x2 = 0.5003 | – | 1469.1
318.29 K, 75990 kPa, x2 = 0.3007 | – | 1546.1
318.29 K, 75990 kPa, x2 = 0.5003 | – | 1530.4
318.29 K, 91180 kPa, x2 = 0 | – | 1624.1
318.29 K, 91180 kPa, x2 = 0.3007 | – | 1602.7
318.29 K, 91180 kPa, x2 = 0.5003 | – | 1587.6
318.29 K, 101320 kPa, x2 = 0 | – | 1658.5
318.29 K, 101320 kPa, x2 = 0.3007 | – | 1638.2
318.3 K, 30390 kPa, x2 = 0.3007 | – | 1347.3
318.3 K, 75990 kPa, x2 = 0 | – | 1568.8
318.3 K, 75990 kPa, x2 = 0.7007 | – | 1510
318.3 K, 101320 kPa, x2 = 0.7007 | – | 1605
318.31 K, 15200 kPa, x2 = 0.7007 | – | 1213.9
318.31 K, 30390 kPa, x2 = 0.7007 | – | 1301.3
318.31 K, 45590 kPa, x2 = 0.7007 | – | 1378
318.31 K, 60790 kPa, x2 = 0.7007 | – | 1447.1
318.31 K, 91180 kPa, x2 = 0.7007 | – | 1568.1
318.37 K, 101 kPa, x2 = 0.6 | – | 1123.2
318.38 K, 101 kPa, x2 = 0.7002 | – | 1105.9
318.38 K, 101 kPa, x2 = 0.8995 | – | 1066.3
318.39 K, 101 kPa, x2 = 0 | – | 1200.9
318.39 K, 101 kPa, x2 = 0.3002 | – | 1167
318.39 K, 101 kPa, x2 = 0.3996 | – | 1153.6
318.4 K, 101 kPa, x2 = 0.1007 | – | 1190.5
318.4 K, 101 kPa, x2 = 0.8 | – | 1087
318.41 K, 101 kPa, x2 = 0.2001 | – | 1179.3
318.41 K, 101 kPa, x2 = 0.5002 | – | 1138.9
